Data as given in ChEMBL document CHEMBL1201862, “PubChem BioAssay data set” (2004).
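Step 1: Grow cells in 96-well plates. Step 2: Expose to compound for 48 hours at 5 concentrations. Step 3: Interpolate endpoints linearly; if unreached, use highest concentration. Abbreviation: GI50, concentration required for 50% inhibition of growth.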 Calls of active or inactive are those of the source. Cut-off read from the data, not from the text of the source: active = GI50 up to about 1.1 µM and inactive = higher.

Columns and labels:
Experiment in all cases: NCI-60 cell line screen, 48 h
[1] = system: ACHN
[2] = system: COLO 205
[3] = system: EKVX
[4] = system: HCT-116
[5] = system: HOP-92
[6] = system: KM-20L2
[7] = system: KM12
[8] = system: LOX IMVI
[9] = system: MOLT-4
[10] = system: Malme-3M
[11] = system: OVCAR-8
[12] = system: RXF 393
[13] = system: SF-268
[14] = system: SF-295
[15] = system: SK-MEL-2
[16] = system: SK-MEL-5
[17] = system: SK-OV-3
[18] = system: HCC 2998
[19] = system: MDA-MB-435
[20] = system: NCI/ADR-RES

Compound	GI50 [1]	GI50 [2]	GI50 [3]	GI50 [4]	GI50 [5]	GI50 [6]	GI50 [7]	GI50 [8]	GI50 [9]	GI50 [10]	GI50 [11]	GI50 [12]	GI50 [13]	GI50 [14]	GI50 [15]	GI50 [16]	GI50 [17]	GI50 [18]	GI50 [19]	GI50 [20]
Cc1ccc(/N=C/c2ccc3c(c2)OCO3)cc1C	> 100 µM (inactive)	> 100 µM (inactive)	> 100 µM (inactive)	> 100 µM (inactive)	> 100 µM (inactive)	> 100 µM (inactive)	> 100 µM (inactive)	> 100 µM (inactive)	> 100 µM (inactive)	> 100 µM (inactive)	> 100 µM (inactive)	> 100 µM (inactive)	> 100 µM (inactive)	> 100 µM (inactive)	> 100 µM (inactive)	> 100 µM (inactive)	> 100 µM (inactive)	–	–	–
CN(C)CCNc1ccc2ncn3c4ccc(O)cc4c(=O)c1c23	0.158 µM (active)	0.698 µM (active)	5.22 µM (inactive)	0.272 µM (active)	2.54 µM (inactive)	2.38 µM (inactive)	1.95 µM (inactive)	0.543 µM (active)	0.0258 µM (active)	2.64 µM (inactive)	0.646 µM (active)	0.617 µM (active)	0.893 µM (active)	1.39 µM (inactive)	3.79 µM (inactive)	0.714 µM (active)	1.29 µM (inactive)	2.12 µM (inactive)	2.41 µM (inactive)	3 µM (inactive)
CCOc1ccc(/C=N\N2C(=O)c3ccccc3C2=O)cc1	> 100 µM (inactive)	–	> 100 µM (inactive)	> 100 µM (inactive)	> 100 µM (inactive)	> 100 µM (inactive)	> 100 µM (inactive)	> 100 µM (inactive)	> 100 µM (inactive)	> 100 µM (inactive)	> 100 µM (inactive)	> 100 µM (inactive)	> 100 µM (inactive)	> 100 µM (inactive)	> 100 µM (inactive)	> 100 µM (inactive)	–	> 100 µM (inactive)	–	–
O/N=C/c1ccc(O)c(O)c1	39.9 µM (inactive)	55.8 µM (inactive)	75.7 µM (inactive)	> 100 µM (inactive)	> 100 µM (inactive)	> 100 µM (inactive)	> 100 µM (inactive)	67.8 µM (inactive)	20.5 µM (inactive)	> 100 µM (inactive)	> 100 µM (inactive)	> 100 µM (inactive)	> 100 µM (inactive)	> 100 µM (inactive)	> 100 µM (inactive)	62.8 µM (inactive)	> 100 µM (inactive)	> 100 µM (inactive)	–	–
O=C1NN=CN2C(=O)CCC12 (configuration not stated)	> 100 µM (inactive)	> 100 µM (inactive)	> 100 µM (inactive)	> 100 µM (inactive)	> 100 µM (inactive)	> 100 µM (inactive)	> 100 µM (inactive)	> 100 µM (inactive)	> 100 µM (inactive)	–	> 100 µM (inactive)	> 100 µM (inactive)	> 100 µM (inactive)	> 100 µM (inactive)	> 100 µM (inactive)	> 100 µM (inactive)	> 100 µM (inactive)	> 100 µM (inactive)	–	–
CCOC(=O)c1sc2c(C(=O)OCC)n3ccccc3c2c1N	52.8 µM (inactive)	> 100 µM (inactive)	59.4 µM (inactive)	81.5 µM (inactive)	13.4 µM (inactive)	> 100 µM (inactive)	> 100 µM (inactive)	> 100 µM (inactive)	> 100 µM (inactive)	> 100 µM (inactive)	61.9 µM (inactive)	20.2 µM (inactive)	21.7 µM (inactive)	44.6 µM (inactive)	> 100 µM (inactive)	> 100 µM (inactive)	38 µM (inactive)	> 100 µM (inactive)	–	–
O=c1oc2c3ccc4ccccc4c3n(Cc3nc4ccccc4[nH]3)c2c2ccccc12	3.89 µM (inactive)	12.7 µM (inactive)	23.6 µM (inactive)	4.72 µM (inactive)	> 29.3 µM (inactive)	> 69.5 µM (inactive)	> 64.4 µM (inactive)	2.26 µM (inactive)	1.11 µM (active)	> 100 µM (inactive)	13.7 µM (inactive)	9.4 µM (inactive)	15.6 µM (inactive)	9.14 µM (inactive)	41.3 µM (inactive)	–	> 100 µM (inactive)	40.4 µM (inactive)	–	–
COc1cc(O)c(C(=O)/C=C/c2ccc(OC)c(OCc3ccccc3)c2)c(OC)c1	5.58 µM (inactive)	0.0446 µM (active)	> 100 µM (inactive)	4.55 µM (inactive)	> 100 µM (inactive)	> 100 µM (inactive)	31 µM (inactive)	33.7 µM (inactive)	5.46 µM (inactive)	–	6.84 µM (inactive)	5.21 µM (inactive)	–	0.301 µM (active)	37.8 µM (inactive)	> 100 µM (inactive)	> 100 µM (inactive)	46.9 µM (inactive)	–	–
CC(=O)OCCc1cccnc1/C=N/O	> 100 µM (inactive)	> 100 µM (inactive)	> 100 µM (inactive)	> 100 µM (inactive)	> 100 µM (inactive)	> 100 µM (inactive)	> 100 µM (inactive)	> 100 µM (inactive)	> 100 µM (inactive)	> 100 µM (inactive)	> 100 µM (inactive)	> 100 µM (inactive)	> 100 µM (inactive)	> 100 µM (inactive)	> 100 µM (inactive)	> 100 µM (inactive)	> 100 µM (inactive)	> 100 µM (inactive)	–	–
CS(=O)(=O)OCCN1CCN(C(=O)c2cccc3c(Nc4ccc(S(N)(=O)=O)cc4)c4ccccc4nc23)CC1	> 100 µM (inactive)	> 50.8 µM (inactive)	> 100 µM (inactive)	> 43.9 µM (inactive)	> 100 µM (inactive)	> 100 µM (inactive)	> 100 µM (inactive)	> 40.6 µM (inactive)	> 100 µM (inactive)	> 100 µM (inactive)	> 100 µM (inactive)	> 55.2 µM (inactive)	> 100 µM (inactive)	> 100 µM (inactive)	> 100 µM (inactive)	> 100 µM (inactive)	> 100 µM (inactive)	> 100 µM (inactive)	–	–
COc1cc(-c2cc(-c3cc([N+](=O)[O-])c(/C=N/NC(=O)c4ccncc4)o3)ccc2OC)ccc1C	> 100 µM (inactive)	> 100 µM (inactive)	> 100 µM (inactive)	–	> 100 µM (inactive)	> 100 µM (inactive)	–	> 100 µM (inactive)	–	> 100 µM (inactive)	–	> 100 µM (inactive)	> 100 µM (inactive)	> 100 µM (inactive)	> 100 µM (inactive)	–	> 100 µM (inactive)	> 100 µM (inactive)	–	–
N#CC1C(=O)NC(=O)C1=O (configuration not stated)	> 100 µM (inactive)	> 100 µM (inactive)	> 100 µM (inactive)	> 100 µM (inactive)	> 100 µM (inactive)	> 100 µM (inactive)	> 100 µM (inactive)	> 100 µM (inactive)	> 100 µM (inactive)	> 100 µM (inactive)	> 100 µM (inactive)	> 100 µM (inactive)	> 100 µM (inactive)	> 100 µM (inactive)	> 100 µM (inactive)	> 100 µM (inactive)	> 100 µM (inactive)	> 100 µM (inactive)	–	–
CC12CC(=O)OC(Cc3ccccc31)O2 (configuration not stated)	> 100 µM (inactive)	> 100 µM (inactive)	> 100 µM (inactive)	> 100 µM (inactive)	> 100 µM (inactive)	> 100 µM (inactive)	> 100 µM (inactive)	> 100 µM (inactive)	> 100 µM (inactive)	> 100 µM (inactive)	> 100 µM (inactive)	> 100 µM (inactive)	> 100 µM (inactive)	> 100 µM (inactive)	> 100 µM (inactive)	–	> 100 µM (inactive)	> 100 µM (inactive)	–	–
CCN(CC)CCCNc1ccc2nc(C)n3c4ccc(O)cc4c(=O)c1c23	3.01 µM (inactive)	5.18 µM (inactive)	11.4 µM (inactive)	0.713 µM (active)	2.89 µM (inactive)	1.65 µM (inactive)	3.61 µM (inactive)	1.14 µM (inactive)	0.301 µM (active)	10.7 µM (inactive)	1.95 µM (inactive)	3.89 µM (inactive)	1.96 µM (inactive)	5.16 µM (inactive)	6.35 µM (inactive)	10.3 µM (inactive)	6.64 µM (inactive)	7.43 µM (inactive)	9.89 µM (inactive)	12.6 µM (inactive)
COC(=O)[C@@]12OC[C@]34C([C@@H](O)C1O)[C@@]1(C)CC(=O)C(O)=C(C)C1C[C@H]3OC(=O)[C@H](OC(=O)CC(C)C(F)(F)F)[C@H]42 (some centres not stated)	0.0231 µM (active)	0.101 µM (active)	0.128 µM (active)	0.0101 µM (active)	0.00953 µM (active)	0.0195 µM (active)	0.0324 µM (active)	–	0.0047 µM (active)	0.0101 µM (active)	0.0574 µM (active)	0.0912 µM (active)	0.0869 µM (active)	0.0445 µM (active)	0.0771 µM (active)	0.0125 µM (active)	0.0514 µM (active)	0.0105 µM (active)	–	–
O=C1CCC2CCOc3ccc(O)c1c32 (configuration not stated)	> 100 µM (inactive)	> 100 µM (inactive)	> 100 µM (inactive)	> 100 µM (inactive)	> 100 µM (inactive)	> 100 µM (inactive)	> 100 µM (inactive)	–	> 100 µM (inactive)	> 100 µM (inactive)	> 100 µM (inactive)	> 100 µM (inactive)	> 100 µM (inactive)	> 100 µM (inactive)	> 100 µM (inactive)	> 100 µM (inactive)	> 100 µM (inactive)	> 100 µM (inactive)	–	–
